From patent US20240016900A1, “COLLAGEN PEPTIDE-BASED MEDICAMENT COMPOSITIONS AND USES THEREOF” (SUSTAIN HOLDINGS, LLC, priority 2022, published 2024)

Assays:
[1] = cited from earlier work; for melting temperature of a triple helix: Sakakibara et al. 1973
[2] = system: glial lamina at the optic nerve head; assay: AFM measurement of Young's Modulus and morphology in glial lamina of mouse eye explants after MMP1 treatment, with or without CMP; conditions: MMP1 alone, 5 μg/ml for 30 minutes, compared with untreated baseline
Excerpt: To conduct these studies, mouse eyes were explanted and thin sectioned as described in Example 2 above, and sections of the glial lamina and the peripapillary sclera were examined by atomic force microscopy (AFM).
To increase the statistical significance of these studies, AFM was used to make Young's Modulus measurements across a large number of points in multiple individual locations in a given sample of glial lamina, as was done in Example 2 for peripapillary sclera.

[3] = system: peripapillary sclera in mouse eyes; assay: AFM measurement of Young's Modulus in mouse peripapillary sclera explants after MMP treatment, with or without CMP; conditions: MMP1 alone, 50 μg/ml for 30 minutes, compared with untreated baseline
Excerpt: Therefore, to examine the possible therapeutic effects of CMPs of the invention in treating myopia, studies were designed to test the effects of certain CMPs conjugates in a model of the in vivo setting—an ex vivo study of the collagen matrix in the peripapillary sclera in mouse eyes. To conduct these studies, mouse eyes were explanted and thin sectioned, and sections of the peripapillary sclera (the scleral area adjacent to the optic nerve head) were examined by atomic force microscopy (AFM).
To examine the impact of matrix metalloproteinase (MMP) treatment, with or without subsequent CMP treatment, on the stiffness of the mouse peripapillary scleral explants, samples were treated with MMP (50 μg/ml for 30 minutes), followed by either a PBS washout or by treatment with a CMP-containing formulation of the invention for 60 minutes.
To increase the statistical significance of these studies, AFM was used to make Young's Modulus measurements across a large number of points in multiple individual locations in a given sample of peripapillary sclera.

glial lamina = assay: Fluorescence microscopy of disrupted (RCHP) and intact (Col1) collagen in explants, glial lamina; set-up: species or system mouse; conditions: MMP1 alone 30 minutes
Description: (§1) To examine the distribution of disrupted and intact collagen in such explants, samples prepared as above were treated with DAPI (to localize cell nuclei), a fluorescently labeled antibody against type I collagen (“Col1”), and a Cy3-labeled collagen hybridizing peptide (“RCHP”) which binds only to areas of disrupted collagen.

peripapillary sclera = assay: Fluorescence microscopy of disrupted (RCHP) and intact (Col1) collagen in explants, peripapillary sclera; set-up: species or system mouse; conditions: MMP1 alone 30 minutes
Description: as §1

Human type I collagen = Human type I collagen (Homo sapiens, UniProt P02452+P08123); assay: AFM of type I collagen plated on substrates, MMP1 with or without CMP13; type: biochemical; conditions: collagen 10 μg/ml; MMP1 alone 60 ng/ml for 30 minutes
Excerpt: In untreated (baseline) samples, extensive and multilamellar networks of collagen fibers, fibrils and bundles could be readily observed (FIGS. 15A, 15B).

Chain of Human type I collagen (P02452 162-1218 limits assumed): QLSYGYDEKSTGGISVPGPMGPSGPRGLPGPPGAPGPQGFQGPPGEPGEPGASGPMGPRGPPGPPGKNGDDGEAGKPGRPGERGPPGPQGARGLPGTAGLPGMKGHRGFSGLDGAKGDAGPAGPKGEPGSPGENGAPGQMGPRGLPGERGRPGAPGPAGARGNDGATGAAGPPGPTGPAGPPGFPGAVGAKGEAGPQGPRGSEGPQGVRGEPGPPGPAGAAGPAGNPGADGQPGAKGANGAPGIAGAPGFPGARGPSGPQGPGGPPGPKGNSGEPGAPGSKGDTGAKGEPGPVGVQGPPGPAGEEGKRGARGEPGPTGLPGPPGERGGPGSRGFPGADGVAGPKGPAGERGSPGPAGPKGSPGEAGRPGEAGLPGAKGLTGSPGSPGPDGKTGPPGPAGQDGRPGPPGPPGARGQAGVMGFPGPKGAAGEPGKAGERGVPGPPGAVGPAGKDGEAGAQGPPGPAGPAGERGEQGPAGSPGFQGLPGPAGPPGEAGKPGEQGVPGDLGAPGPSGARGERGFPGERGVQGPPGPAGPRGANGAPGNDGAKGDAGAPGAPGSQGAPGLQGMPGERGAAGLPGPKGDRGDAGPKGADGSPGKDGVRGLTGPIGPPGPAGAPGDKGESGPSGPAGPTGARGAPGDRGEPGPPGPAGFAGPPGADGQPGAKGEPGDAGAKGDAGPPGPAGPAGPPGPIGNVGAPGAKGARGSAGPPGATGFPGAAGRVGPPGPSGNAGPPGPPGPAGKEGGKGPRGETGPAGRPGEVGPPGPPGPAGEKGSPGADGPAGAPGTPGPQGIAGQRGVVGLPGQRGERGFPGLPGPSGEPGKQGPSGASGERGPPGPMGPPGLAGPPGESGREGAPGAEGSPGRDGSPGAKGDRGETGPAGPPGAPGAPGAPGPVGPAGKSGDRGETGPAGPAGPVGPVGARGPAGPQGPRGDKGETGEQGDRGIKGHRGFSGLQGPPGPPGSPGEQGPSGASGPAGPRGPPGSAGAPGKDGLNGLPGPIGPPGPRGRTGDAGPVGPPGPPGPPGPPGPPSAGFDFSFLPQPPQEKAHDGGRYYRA
Chain of Human type I collagen (P08123 80-1119 limits assumed): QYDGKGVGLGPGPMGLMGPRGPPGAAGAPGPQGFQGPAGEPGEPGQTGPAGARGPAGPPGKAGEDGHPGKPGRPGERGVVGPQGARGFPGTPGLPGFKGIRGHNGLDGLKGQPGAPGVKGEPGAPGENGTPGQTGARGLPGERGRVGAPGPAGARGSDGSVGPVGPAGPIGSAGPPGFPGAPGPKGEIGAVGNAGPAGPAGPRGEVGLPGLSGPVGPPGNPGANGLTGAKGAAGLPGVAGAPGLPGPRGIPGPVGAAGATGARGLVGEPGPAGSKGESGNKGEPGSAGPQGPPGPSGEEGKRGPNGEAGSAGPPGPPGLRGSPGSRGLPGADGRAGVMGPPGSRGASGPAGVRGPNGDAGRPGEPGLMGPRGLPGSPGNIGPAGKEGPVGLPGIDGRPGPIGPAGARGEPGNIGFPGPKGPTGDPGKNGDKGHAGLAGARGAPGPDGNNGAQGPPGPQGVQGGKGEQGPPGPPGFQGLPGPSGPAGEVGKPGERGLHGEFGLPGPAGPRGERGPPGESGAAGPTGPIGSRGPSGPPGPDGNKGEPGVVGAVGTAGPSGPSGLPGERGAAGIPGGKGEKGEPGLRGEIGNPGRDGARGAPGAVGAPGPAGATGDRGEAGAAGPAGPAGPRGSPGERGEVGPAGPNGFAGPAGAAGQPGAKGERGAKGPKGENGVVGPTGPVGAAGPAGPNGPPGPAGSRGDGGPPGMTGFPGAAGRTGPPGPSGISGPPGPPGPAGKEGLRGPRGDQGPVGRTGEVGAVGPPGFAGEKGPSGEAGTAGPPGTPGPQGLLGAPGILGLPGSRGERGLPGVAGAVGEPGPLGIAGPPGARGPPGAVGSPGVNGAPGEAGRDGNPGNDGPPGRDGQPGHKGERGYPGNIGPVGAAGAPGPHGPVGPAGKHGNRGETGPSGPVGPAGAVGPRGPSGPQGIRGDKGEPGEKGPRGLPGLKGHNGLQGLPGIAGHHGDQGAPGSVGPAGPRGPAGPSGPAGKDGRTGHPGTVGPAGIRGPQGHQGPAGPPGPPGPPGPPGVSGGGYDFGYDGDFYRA

| Substance | melting temperature of a triple helix [1] [°C] | rate at which chains fold into a triple helix ([1]; relative to (ProProGly)10, Chopra and Ananthanarayanan 1982) | Young's Modulus (glial lamina stiffness) [2] | Young's Modulus (glial lamina stiffness) ([2]; listed as MMP) | Young's Modulus (scleral stiffness) [3] | Young's Modulus (scleral stiffness) ([3]; listed as MMP) | disrupted collagen (RCHP) (glial lamina) | intact collagen (Col1) (glial lamina) | disrupted collagen (RCHP) (peripapillary sclera) | collagen fiber/fibril networks on substrate (AFM) (Human type I collagen) |
| --- | --- | --- | --- | --- | --- | --- | --- | --- | --- | --- |
| (ProHypGly)10 | 58 | substantially greater |  |  |  |  |  |  |  |  |
| (ProProGly)10 | 24 |  |  |  |  |  |  |  |  |  |
| MMP1: matrix metalloproteinase 1, used to disrupt collagen in explants and on substrates |  |  | significant decrease in Young's Modulus | adversely affecting the stiffness of the glial lamina | significant decrease in Young's Modulus | significantly reduced the scleral stiffness | large amount of disrupted collagen | nearly devoid of intact collagen | large amount of disrupted collagen | substantial amount of disorganized collagen and little remaining fiber/fibril formation |
